{
  "source": "paper PMC10927086",
  "about": "“Effects of structurally distinct human HDAC6 and HDAC6/HDAC8 inhibitors against S. mansoni larval and adult worm stages” (PLOS Neglected Tropical Diseases, 2024)",
  "system": "S. mansoni eggs laid by worm pairs",
  "assay": "Egg counts and egg maturation staging (Vogel and Prata) in vitro",
  "type": "cell-based, Schistosoma mansoni",
  "conditions": "for percent of eggs that are viable at the given maturation stage at 20 µM / percent of eggs that are viable at the given maturation stage at 50 µM: Schistosoma mansoni",
  "from_the_text": "The eggs produced by worm pairs in vitro were counted at day 3 upon treatment using an inverted Leica DM IL microscope (Leica Microsystems, Wetzlar, Germany). Images were captured with a BX41 Olympus (Olympus, Tokyo, Japan) microscope and a brightfield objective 10× served by an Olympus DP23 microscope digital camera and visualized using “CellSens Entry” software (version 3.1.1). Egg maturation morphological score was assigned based on the Vogel and Prata’s staging system of egg maturation previously reported.\nTherefore at 72 h upon worm pairs treatment the eggs were counted and classified by microscopic observation according to the Vogel and Prata staging system of egg maturation and grouped as immature (stages I and II), intermediate/developed (stages III–V), viable or damaged eggs.\nPanel B. Histograms represent the percentages of eggs at different maturation stages +/- SEM counted at 72 h after treatment; 5–6 microscopy images of at least 3 independent experiments were analyzed. Filled red triangles indicate viable eggs at stages I–II (immature); empty red triangles indicate damaged/morphological abnormal eggs at stages I–II (immature); filled red arrows indicate viable eggs at stages III–V (intermediate/developed); empty red arrows indicate damaged/morphological abnormal eggs at stages III-V; ef, egg fragments; sp, sperm cells; oc, oocyte. Scale Bars = 200 μm.",
  "key": {"[1]": {"conditions": "72 h, NF2839 5 and 10 μM, NF2836 20 and 50 μM"}},
  "note": "Where two headings read alike, the source gives them in different places.",
  "data": [
    {"smiles": "Cn1c(=O)c(OCc2ccc(C(=O)NO)cc2)c(C2CCCCC2)c2ccccc21", "note": "[NF2836]", "values": [
      {"measurement": "% Stage I/II damaged", "setting": "20 µM, exp.1", "result": 97.1, "unit": "%"},
      {"measurement": "%Stage III/IV/V damaged", "setting": "20 µM, exp.1", "result": 0, "unit": "%"},
      {"measurement": "Stage I/II damaged counts", "setting": "20 µM, exp.1", "result": 608},
      {"measurement": "Stage I/II viable (egg counts)", "setting": "20 µM, exp.1", "result": 18},
      {"measurement": "Stage II/IV/V viable (egg counts)", "setting": "20 µM, exp.1", "result": 0},
      {"measurement": "Stage III/IV/V damaged (egg counts)", "setting": "20 µM, exp.1", "result": 0},
      {"measurement": "egg counts", "setting": "20 µM, exp.1", "result": 626},
      {"measurement": "% Stage I/II damaged", "setting": "20 µM, exp.2", "result": 16.0, "unit": "%"},
      {"measurement": "%Stage III/IV/V damaged", "setting": "20 µM, exp.2", "result": 0, "unit": "%"},
      {"measurement": "Stage I/II damaged counts", "setting": "20 µM, exp.2", "result": 76},
      {"measurement": "Stage I/II viable (egg counts)", "setting": "20 µM, exp.2", "result": 378},
      {"measurement": "Stage II/IV/V viable (egg counts)", "setting": "20 µM, exp.2", "result": 19},
      {"measurement": "Stage III/IV/V damaged (egg counts)", "setting": "20 µM, exp.2", "result": 0},
      {"measurement": "% Stage I/II damaged", "setting": "20 µM, exp.3", "result": 79.8, "unit": "%"},
      {"measurement": "%Stage III/IV/V damaged", "setting": "20 µM, exp.3", "result": 0, "unit": "%"},
      {"measurement": "Stage I/II damaged counts", "setting": "20 µM, exp.3", "result": 408},
      {"measurement": "Stage I/II viable (egg counts)", "setting": "20 µM, exp.3", "result": 103},
      {"measurement": "Stage II/IV/V viable (egg counts)", "setting": "20 µM, exp.3", "result": 0},
      {"measurement": "Stage III/IV/V damaged (egg counts)", "setting": "20 µM, exp.3", "result": 0},
      {"measurement": "egg counts", "setting": "20 µM, exp.3", "result": 511},
      {"measurement": "% Stage I/II damaged, Media", "setting": "20 µM, mean of experiments", "result": 64.3, "unit": "%"},
      {"measurement": "%Stage III/IV/V damaged, Media", "setting": "20 µM, mean of experiments", "result": 0, "unit": "%"},
      {"measurement": "% Stage I/II damaged", "setting": "50 µM, exp.1", "result": 99.8, "unit": "%"},
      {"measurement": "%Stage III/IV/V damaged", "setting": "50 µM, exp.1", "result": 0, "unit": "%"},
      {"measurement": "Stage I/II damaged counts", "setting": "50 µM, exp.1", "result": 448},
      {"measurement": "Stage I/II viable (egg counts)", "setting": "50 µM, exp.1", "result": 1},
      {"measurement": "egg counts", "setting": "50 µM, exp.1", "result": 449},
      {"measurement": "% Stage I/II damaged", "setting": "50 µM, exp.2", "result": 92.6, "unit": "%"},
      {"measurement": "%Stage III/IV/V damaged", "setting": "50 µM, exp.2", "result": 0, "unit": "%"},
      {"measurement": "Stage I/II damaged counts", "setting": "50 µM, exp.2", "result": 287},
      {"measurement": "Stage I/II viable (egg counts)", "setting": "50 µM, exp.2", "result": 23},
      {"measurement": "egg counts", "setting": "50 µM, exp.2", "result": 310},
      {"measurement": "% Stage I/II damaged, Media", "setting": "50 µM, mean of experiments", "result": 96.2, "unit": "%"},
      {"measurement": "%Stage III/IV/V damaged, Media", "setting": "50 µM, mean of experiments", "result": 0, "unit": "%"},
      {"measurement": "egg damage / viability", "setting": "[1]", "result": "eggs appeared seriously damaged and not viable"},
      {"measurement": "egg maturation (Vogel and Prata staging)", "setting": "[1]", "result": "essentially all eggs were arrested in stage I/II"},
      {"measurement": "number of eggs laid by worm pairs", "setting": "[1]", "result": "did not observe a decrease in the number of eggs"},
      {"measurement": "percent of eggs that are viable at the given maturation stage at 20 µM", "setting": "20 µM, exp.1, read-out: % Stage I/II viable", "result": 2.9, "unit": "%"},
      {"measurement": "percent of eggs that are viable at the given maturation stage at 20 µM", "setting": "20 µM, exp.1, read-out: %Stage II/IV/V viable", "result": 0, "unit": "%"},
      {"measurement": "percent of eggs that are viable at the given maturation stage at 20 µM", "setting": "20 µM, exp.2, read-out: % Stage I/II viable", "result": 79.6, "unit": "%"},
      {"measurement": "percent of eggs that are viable at the given maturation stage at 20 µM", "setting": "20 µM, exp.2, read-out: %Stage II/IV/V viable", "result": 4, "unit": "%"},
      {"measurement": "percent of eggs that are viable at the given maturation stage at 20 µM", "setting": "20 µM, exp.3, read-out: % Stage I/II viable", "result": 20.2, "unit": "%"},
      {"measurement": "percent of eggs that are viable at the given maturation stage at 20 µM", "setting": "20 µM, exp.3, read-out: %Stage II/IV/V viable", "result": 0, "unit": "%"},
      {"measurement": "percent of eggs that are viable at the given maturation stage at 20 µM", "setting": "20 µM, mean of experiments, read-out: % Stage I/II viable, Media", "result": 34.2, "unit": "%"},
      {"measurement": "percent of eggs that are viable at the given maturation stage at 20 µM", "setting": "20 µM, mean of experiments, read-out: %Stage II/IV/V viable, Media", "result": 1.3, "unit": "%"},
      {"measurement": "percent of eggs that are viable at the given maturation stage at 50 µM", "setting": "50 µM, exp.1, read-out: % Stage I/II viable", "result": 0.223, "unit": "%"},
      {"measurement": "percent of eggs that are viable at the given maturation stage at 50 µM", "setting": "50 µM, exp.1, read-out: %Stage II/IV/V viable", "result": 0, "unit": "%"},
      {"measurement": "percent of eggs that are viable at the given maturation stage at 50 µM", "setting": "50 µM, exp.2, read-out: % Stage I/II viable", "result": 7.4, "unit": "%"},
      {"measurement": "percent of eggs that are viable at the given maturation stage at 50 µM", "setting": "50 µM, exp.2, read-out: %Stage II/IV/V viable", "result": 0, "unit": "%"},
      {"measurement": "percent of eggs that are viable at the given maturation stage at 50 µM", "setting": "50 µM, mean of experiments, read-out: % Stage I/II viable, Media", "result": 3.8, "unit": "%"},
      {"measurement": "percent of eggs that are viable at the given maturation stage at 50 µM", "setting": "50 µM, mean of experiments, read-out: %Stage II/IV/V viable, Media", "result": 0, "unit": "%"}
    ]}
  ]
}
